“And” between values parts separate entries of the source, which are not always exact repeats. Equal entries are not always repeated. “Also recorded” adds a separate entry of the source.
Tests used:
PfSTART1 = PfSTART1 knock-down by glucosamine (glmS riboswitch), Western blot densitometry; format: cell-based, Plasmodium falciparum; details: 2.5 mM GlcN; for START densitometry, Norm 0 mM [EXP2]: one value per biological replicate; for START densitometry, norm 0/EXP2: START band normalised to EXP2, then to 0 mM GlcN of the same line; for START densitometry, norm 0/EXP2 / START densitometry, norm 0/HSP / START densitometry, norm 3D7, EXP2 / START densitometry, norm 3D7, HSP70: 3 biological replicates; for START densitometry, norm 0/HSP: START band normalised to HSP70, then to 0 mM GlcN of the same line; for START densitometry, norm 3D7, EXP2: START/EXP2 relative to 3D7 at 0 mM GlcN (=1.00E+02); for START densitometry, norm 3D7, HSP70: START/HSP70 relative to 3D7 at 0 mM GlcN (=1.00E+02); for PfSTART1 knockdown: 48 h
Description: Parasites were prepared for the stage of interest and proteins were extracted using a saponin-lysis (unless indicated otherwise). For knock-down assays, parasites were exposed to 0 or 2.5 mM GlcN for 48 h (starting from late schizont/early rings): the day before harvesting schizonts, 30 nM ML10 (LifeArc) was also added to the cultures to block egress. Infected red blood cells were lysed 10 min on ice with 0.1% saponin in PBS complemented with 1x Protease Inhibitors Cocktail (Roche; PBS + PI). Parasites were pelleted and washed with PBS + PI to remove haemoglobin. […] Protein samples were centrifuged at 15,000 g, then run on a pre-cast 4-12% NuPAGE Bis-Tris gel (Invitrogen) and proteins were transferred onto a nitrocellulose membrane using iBlot (Invitrogen). Membranes were exposed to the primary antibody overnight at 4 °C, to the secondary antibody 1 h at room temperature, and fluorescence was measured using an Odyssey imaging system, which was also used to measure densitometry. The list of antibodies used, their dilution, and origins are described in Table S3.

[1] = system: P. berghei sporozoites invading HC-04 human liver cells; assay: In vitro liver invasion assay; format: cell-based, Plasmodium berghei
Description: P. berghei ANKA constitutively expressing mCherry[82] was used for the in vitro liver stage invasion assay. Animals used for the generation of the sporozoites were 4- to 5-week-old male Swiss Webster mice and were purchased from the Monash Animal Services (Melbourne, Victoria, Australia) and housed at 22 to 25 °C on a 12 h light/dark cycle with 40-70% humidity at the School of Biosciences, The University of Melbourne, Australia. All animal experiments were in accordance with the Prevention of Cruelty to Animals Act 1986, the Prevention of Cruelty to Animals Regulations 2008, and National Health and Medical Research Council (2013) Australian code for the care and use of animals for scientific purposes. These experiments were reviewed and permitted by the Melbourne University Animal Ethics Committee (2015123).
Infections of naïve Swiss mice were carried out by intraperitoneal (IP) inoculation obtained from a donor mouse between the first and fourth passages from cryopreserved stock. Parasitemia was monitored by Giemsa smear and exflagellation quantified 3 days post-infection. A. stephensi mosquitoes were allowed to feed on anaesthetised mice once the exflagellation rate was assessed between about 12 to 15 exflagellation events per 1 × 10^4 RBCs. Salivary glands of infected mosquitoes (days 17 to 24 post-infection) were isolated by dissection and parasites placed into RPMI-1640 media.
This was performed essentially as described[83] with the minor variations outlined in the Supplementary Information. […]
In vitro liver invasion assays. This was performed essentially as described16 with the following variations. In vitro human liver HCO4 cells (ATCC) were seeded at 1 × 10^5 cells/mL, grown for 24 h and then infected for 2 h with 30,000 Pb ANKA mCherry […]
expressing sporozoites. Following fixation, an IFA with anti -CSP antibody (1:500) followed by anti-mouse Alexafluor 488 (1:1 ,000; Invitrogen, Carlsbad, CA, USA) labels uninvaded parasites. Fluorescence signal was assessed using an Olympus CKX41 epifluorescence microscope. […]
Gametogenesis was then triggered by the addition of 10 μL ookinete medium (gametocyte culture medium supplemented with 100 μM xanthurenic acid and 0.27 µg/mL Cy3-labelled anti-Pfs25 antibody) to each well at room temperature. Plates were then cooled on a metal block at 4°C for four min to ensure even cooling and then stabilised for a further 4 min at 28°C. At 20 min post-induction, male gametogenesis was recorded in each well by automated brightfield microscopy using a x4 objective lens and 1.5x magnifier (x6 effective magnification). Afterward, plates were incubated in the dark at room temperature for 24 h and then female gametogenesis recorded in each well by automated fluorescence microscopy (anti-Pfs25-positive cells). All experiments were performed in quadruplicate with DMSO and cabamiquine (DDD107498)17 as negative and positive controls respectively. All data was evaluated in comparison to the positive and negative controls to calculate percentage inhibition of male and female gametocytes, and dose response analysis and IC50 calculation performed using GraphPad Prism. […]
The pellet was subjected to five

stage IV-V gametocytes = assay: Standard membrane feeding assay: stage V gametocytes on day 17; format: cell-based, Plasmodium falciparum; details: days 14-17; for Percentage of Stage V gametocytes: Fig 7C, untreated 4.75
Description: These assays were performed at the Walter and Eliza Hall Institute and at the London School of Hygiene and Tropical Medicine using slightly different approaches which are described in the Supplementary Information. […]
Gametocyte culturing and standard membrane feeding assay (London School of Hygiene and Tropical Medicine). P. falciparum NF54 gametocytes were prepared for blood-feeding to mosquitoes according to the method described by 13, with some slight modifications. Briefly, gametocyte cultures seeded at 2% overall parasitaemia and 4% haematocrit were maintained at 37 °C for 17 days with daily media changes.
Gametocyte functional viability was assessed by ex-flagellation assay at day 14 post induction, observed by light microscopy. An. stephensi (SD500 strain) were reared as […]
Gametocyte aliquots from a single NF54 culture, produced as above, were incubated […]
or culture medium only (no -drug control) from day 14 until day 17 when SMFA was carried out. Fresh drug -containing media was provided each day during this exposure.
Pots of 70 -80 two- to five-day old female An. stephensi mosquitoes were allowed to feed on 500 µL of the respective culture+drug mixture, presented to each pot in a pre - heated 3D -printed water channel membrane feeder 15, until fully fed. Mosquitoes were placed in an incubator at standard conditions and midguts dissected in 0.25% mercurochrome stain for oocyst counts by light microscopy 7-8 days post-feed. […]

N[C@H]1C(O)O[C@H](CO)[C@@H](O)[C@@H]1O (stereo partly shown) [GlcN, glucosamine]
START densitometry, Norm 0 mM [EXP2] (PfSTART1; 3D7): 1.02E+02 and 1.14E+02 and 9.72E+01
START densitometry, norm 0/EXP2 (PfSTART1; 3D7 parasites): 1.29E+02 and 9.38E+01 and 8.16E+01
START densitometry, norm 0/HSP (PfSTART1; 3D7 parasites): 1.32E+02 and 1.01E+02 and 9.77E+01
START densitometry, norm 3D7, EXP2 (PfSTART1; 3D7 parasites): 1.29E+02 and 9.38E+01 and 8.16E+01
START densitometry, norm 3D7, HSP70 (PfSTART1; 3D7 parasites): 1.32E+02 and 1.01E+02 and 9.77E+01
START densitometry, norm 0/EXP2 (PfSTART1; CR-N309K parasites): 1.17E+01 and 2.98E+01 and 1.90E+01
START densitometry, norm 0/HSP (PfSTART1; CR-N309K parasites): 2.14E+01 and 2.66E+01 and 2.27E+01
START densitometry, norm 3D7, EXP2 (PfSTART1; CR-N309K parasites): 1.40E+01 and 3.50E+01 and 1.71E+01
START densitometry, norm 3D7, HSP70 (PfSTART1; CR-N309K parasites): 1.73E+01 and 1.93E+01 and 2.63E+01
PfSTART1 knockdown (PfSTART1; CR-N309K schizonts): 81%
START densitometry, norm 0/EXP2 (PfSTART1; CR-N330K parasites): 1.02E+01 and 3.10E+01 and 7.15E+00
START densitometry, norm 0/HSP (PfSTART1; CR-N330K parasites): 2.77E+01 and 2.71E+01 and 1.13E+01
START densitometry, norm 3D7, EXP2 (PfSTART1; CR-N330K parasites): 1.13E+01 and 3.35E+01 and 1.19E+01
START densitometry, norm 3D7, HSP70 (PfSTART1; CR-N330K parasites): 2.31E+01 and 2.22E+01 and 2.51E+01
PfSTART1 knockdown (PfSTART1; CR-N330K schizonts): 84%
START densitometry, norm 0/EXP2 (PfSTART1; CR-WT parasites): 2.42E+01 and 2.14E+01 and 2.95E+01
START densitometry, norm 0/HSP (PfSTART1; CR-WT parasites): 2.70E+01 and 2.58E+01 and 2.79E+01
START densitometry, norm 3D7, EXP2 (PfSTART1; CR-WT parasites): 3.52E+01 and 2.52E+01 and 2.73E+01
START densitometry, norm 3D7, HSP70 (PfSTART1; CR-WT parasites): 2.33E+01 and 2.02E+01 and 4.40E+01
PfSTART1 knockdown (PfSTART1; CR-WT schizonts): 75%
PfSTART1 knockdown (PfSTART1; SLI-N309K schizonts): 43%
START densitometry, Norm 0 mM [EXP2] (PfSTART1; SLI-N309K): 5.39E+01 and 7.05E+01 and 4.74E+01
PfSTART1 knockdown (PfSTART1; SLI-N330K schizonts): 70%
START densitometry, Norm 0 mM [EXP2] (PfSTART1; SLI-N330K): 2.99E+01 and 2.84E+01 and 3.23E+01
PfSTART1 knockdown (PfSTART1; SLI-WT schizonts): 60%
START densitometry, Norm 0 mM [EXP2] (PfSTART1; SLI-WT): 5.15E+01 and 2.89E+01 and 3.95E+01

CC(C)(Nc1ccc(Cl)c(S(=O)(=O)N2CCOCC2)c1)C(=O)Nc1ccc(F)c(Cl)c1 [W-991]
P. berghei sporozoite invasion ([1]; 2 h incubation with HC-04 cells, p > 0.05): showed no defect in invasion; also recorded: had no impact
Liver stage invasion assay: in ([1]; count of sporozoites inside cells, Replicate 1 and 2): 58 and 121
Liver stage invasion assay: out ([1]; count of sporozoites outside cells, Replicate 1 and 2): 92 and 153
Liver stage invasion assay: ratio ([1]; in relative to in + out, Replicate 1 and 2): 38.6667 and 44.1606
Percentage of Stage V gametocytes (stage IV-V gametocytes; W-991 1 nM): 5%
Percentage of Stage V gametocytes (stage IV-V gametocytes; W-991 50 nM): 5.3%
Percentage of Stage V gametocytes (stage IV-V gametocytes; W-991 100 nM): 5%
effect on gametocyte development (stage IV-V gametocytes; W-991 1, 50, 100 nM): no defect in gametocyte development; also recorded: no impact

From publication PMC11189555, “Aryl amino acetamides prevent Plasmodium falciparum ring development via targeting the lipid-transfer protein PfSTART1” (Nature Communications, 2024)
